Data from PubChem BioAssay AID220 (DTP/NCI, 2004).
Values joined by “and” are separate entries in the source; they are usually repeats but may differ in a detail not shown here. Equal entries are not always repeated. Inconclusive results are not listed.

Test system: CD8F1 mice, subcutaneous mammary adenocarcinoma, T/C%
Experiment: NCI In Vivo Anticancer Drug Screen. Data for tumor model Mammary Adenocarcinoma CD8F1 (subcutaneous) in CD8F1
Details: higher = larger tumour
Method in brief: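 Mice carrying transplanted tumors received test compound, and survival or tumor size was recorded. Each value is the treated-group measurement divided by the corresponding measurement in vehicle-dosed controls.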

[1] = endpoint: median tumor weight change, dose: 125.0 mg/kg/injection, schedule: Q01DX001 (ip), vehicle: Klucel (hydroxypropylcellulose) (HPC)
[2] = endpoint: median tumor weight change, dose: 250.0 mg/kg/injection, schedule: Q01DX001 (ip), vehicle: Klucel (hydroxypropylcellulose) (HPC)
[3] = endpoint: median tumor weight change, dose: 500.0 mg/kg/injection, schedule: Q01DX001 (ip), vehicle: Klucel (hydroxypropylcellulose) (HPC)

**Q.** `CC(=O)[C@H]1CC[C@H]2[C@@H]3C[C@H](C)C4=CC(=O)CC[C@]4(C)[C@H]3C(=O)C[C@]12C` was tested. Which T/C (endpoint: mean tumor weight (est.), dose: 200.0 mg/kg/injection, schedule: Q07DX003 (ip), vehicle: saline) did it give?
**A.** The T/C was 67 % of control.

**Q.** And the T/C (endpoint: mean tumor weight (est.), dose: 400.0 mg/kg/injection, schedule: Q07DX003 (ip), vehicle: saline)?
**A.** The T/C was 61 % of control.

**Q.** And the T/C (endpoint: mean tumor weight (est.), dose: 800.0 mg/kg/injection, schedule: Q07DX003 (ip), vehicle: saline)?
**A.** The T/C was 86 % of control.

**Q.** What about the T/C (endpoint: mean tumor weight, dose: 200.0 mg/kg/injection, schedule: Q07DX005 (ip), vehicle: saline) of the same molecule?
**A.** Its T/C is 107 % of control.

**Q.** What about the T/C (endpoint: mean tumor weight, dose: 200.0 mg/kg/injection, schedule: Q07DX006 (ip), vehicle: saline) of the same molecule?
**A.** The T/C was 63 % of control.

**Q.** What about the T/C (endpoint: mean tumor weight, dose: 200.0 mg/kg/injection, schedule: Q07DX007 (ip), vehicle: saline) of the same molecule?
**A.** Its T/C is 90 % of control.

**Q.** And the T/C (endpoint: mean tumor weight, dose: 400.0 mg/kg/injection, schedule: Q07DX005 (ip), vehicle: saline)?
**A.** The T/C was 54 % of control.

**Q.** And the T/C (endpoint: mean tumor weight, dose: 400.0 mg/kg/injection, schedule: Q07DX006 (ip), vehicle: saline)?
**A.** The T/C was 39 % of control.

**Q.** And the T/C (endpoint: mean tumor weight, dose: 400.0 mg/kg/injection, schedule: Q07DX007 (ip), vehicle: saline)?
**A.** The T/C was 25 % of control.

**Q.** And the T/C (endpoint: mean tumor weight, dose: 800.0 mg/kg/injection, schedule: Q07DX005 (ip), vehicle: saline)?
**A.** Its T/C is 36 % of control.

**Q.** And the T/C (endpoint: mean tumor weight, dose: 800.0 mg/kg/injection, schedule: Q07DX007 (ip), vehicle: saline)?
**A.** Its T/C is 49 % of control.

**Q.** For `C[C@]12CC[C@H]3[C@@H](CCC4=C[C@@H](OC5OCC(OC6OC(CO)C(O)C(O)C6O)C(O)C5O)CC[C@@]43C=O)[C@@]1(O)CCC2C1=CC(=O)OC1` (stereo not given in full), which T/C (endpoint: median tumor weight (est.), dose: 0.62 mg/kg/injection, schedule: Q07DX005 (ip), vehicle: Klucel (hydroxypropylcellulose) (HPC)) is on record?
**A.** Its T/C is 63 % of control.

**Q.** What about the T/C (endpoint: median tumor weight (est.), dose: 1.25 mg/kg/injection, schedule: Q07DX005 (ip), vehicle: Klucel (hydroxypropylcellulose) (HPC)) of the same molecule?
**A.** Its T/C is 85 % of control and 89 % of control.

**Q.** And the T/C (endpoint: median tumor weight (est.), dose: 10.0 mg/kg/injection, schedule: Q07DX005 (ip), vehicle: Klucel (hydroxypropylcellulose) (HPC))?
**A.** The T/C was 93 % of control and 108 % of control.

**Q.** And the T/C (endpoint: median tumor weight (est.), dose: 20.0 mg/kg/injection, schedule: Q07DX005 (ip), vehicle: Klucel (hydroxypropylcellulose) (HPC))?
**A.** The T/C was 106 % of control.

**Q.** What about the T/C (endpoint: median tumor weight (est.), dose: 40.0 mg/kg/injection, schedule: Q07DX005 (ip), vehicle: Klucel (hydroxypropylcellulose) (HPC)) of the same molecule?
**A.** Its T/C is 93 % of control.

**Q.** Which T/C (endpoint: median tumor weight (est.), dose: 4.0 mg/kg/injection, schedule: Q07DX005 (ip), vehicle: saline with Tween-80) does the source give for `O=NN(CCCl)C(=O)NC1CCC(=O)NC1=O` (stereo not given) here?
**A.** Its T/C is 49 % of control.

**Q.** And the T/C (endpoint: median tumor weight (est.), dose: 8.0 mg/kg/injection, schedule: Q07DX005 (ip), vehicle: saline with Tween-80)?
**A.** The T/C was 24 % of control.

**Q.** And the T/C (endpoint: median tumor weight (est.), dose: 13.0 mg/kg/injection, schedule: Q07DX005 (ip), vehicle: saline with Tween-80)?
**A.** The T/C was 12 % of control.

**Q.** And the T/C (endpoint: median tumor weight (est.), dose: 20.0 mg/kg/injection, schedule: Q07DX005 (ip), vehicle: saline with Tween-80)?
**A.** The T/C was 6 % of control.

**Q.** Which results are given for `CCC1=C2C(=O)c3ccccc3C2=C(C)S(=O)(=O)O1`?
**A.** T/C (endpoint: median tumor weight change, dose: 31.25 mg/kg/injection, schedule: Q01DX001 (ip), vehicle: saline with Tween-80): 120 % of control; T/C (endpoint: median tumor weight change, dose: 62.5 mg/kg/injection, schedule: Q01DX001 (ip), vehicle: saline with Tween-80): 185 % of control; T/C (endpoint: median tumor weight change, dose: 125.0 mg/kg/injection, schedule: Q01DX001 (ip), vehicle: saline with Tween-80): 116 % of control

**Q.** `COC1N(C2CC(O)C(CO)O2)C(=O)NC(=O)C1(F)Br` (stereo not given) was tested. Which T/C (endpoint: median tumor weight (est.), dose: 3.12 mg/kg/injection, schedule: Q07DX005 (ip), vehicle: saline) did it give?
**A.** The T/C was 74 % of control.

**Q.** And the T/C (endpoint: median tumor weight (est.), dose: 6.25 mg/kg/injection, schedule: Q07DX005 (ip), vehicle: saline)?
**A.** Its T/C is 54 % of control.

**Q.** What about the T/C (endpoint: median tumor weight (est.), dose: 6.25 mg/kg/injection, schedule: Q07DX005 (ip), vehicle: suspension in saline) of the same molecule?
**A.** The T/C was 67 % of control.

**Q.** And the T/C (endpoint: median tumor weight (est.), dose: 12.5 mg/kg/injection, schedule: Q07DX005 (ip), vehicle: saline)?
**A.** The T/C was 28 % of control.

**Q.** And the T/C (endpoint: median tumor weight (est.), dose: 12.5 mg/kg/injection, schedule: Q07DX005 (ip), vehicle: suspension in saline)?
**A.** The T/C was 113 % of control.

**Q.** What about the T/C (endpoint: median tumor weight (est.), dose: 25.0 mg/kg/injection, schedule: Q07DX005 (ip), vehicle: saline) of the same molecule?
**A.** Its T/C is 46 % of control.

**Q.** What about the T/C (endpoint: median tumor weight (est.), dose: 25.0 mg/kg/injection, schedule: Q07DX005 (ip), vehicle: suspension in saline) of the same molecule?
**A.** Its T/C is 66 % of control.

**Q.** What about the T/C (endpoint: median tumor weight (est.), dose: 50.0 mg/kg/injection, schedule: Q07DX005 (ip), vehicle: saline) of the same molecule?
**A.** Its T/C is 28 % of control.

**Q.** And the T/C (endpoint: median tumor weight (est.), dose: 50.0 mg/kg/injection, schedule: Q07DX005 (ip), vehicle: suspension in saline)?
**A.** The T/C was 45 % of control.

**Q.** And the T/C (endpoint: median tumor weight (est.), dose: 100.0 mg/kg/injection, schedule: Q07DX005 (ip), vehicle: saline)?
**A.** Its T/C is 5 % of control.

**Q.** What about the T/C (endpoint: median tumor weight (est.), dose: 100.0 mg/kg/injection, schedule: Q07DX005 (ip), vehicle: suspension in saline) of the same molecule?
**A.** Its T/C is 45 % of control.

**Q.** What about the T/C (endpoint: median tumor weight (est.), dose: 200.0 mg/kg/injection, schedule: Q07DX005 (ip), vehicle: suspension in saline) of the same molecule?
**A.** Its T/C is 57 % of control.

**Q.** Which results are given for `CC[n+]1c(-c2ccccc2)c2cc(N)ccc2c2ccc(N)cc21`?
**A.** T/C (endpoint: median tumor weight (est.), dose: 10.0 mg/kg/injection, schedule: Q07DX005 (ip), vehicle: water): 85 % of control; T/C (endpoint: median tumor weight (est.), dose: 20.0 mg/kg/injection, schedule: Q07DX005 (ip), vehicle: water): 105 % of control

**Q.** Which T/C (endpoint: mean tumor weight, dose: 1.0 mg/kg/injection, schedule: Q07DX005 (ip), vehicle: saline) does the source give for `COC(C(=O)C(O)C(C)O)C1CC2C=C3C=C(OC4CC(OC5CC(O)C(OC)C(C)O5)C(OC(C)=O)C(C)O4)C(C)C(=O)C3=C(O)C2=C(O)C1OC1CC(OC2CC(OC3CC(C)(O)C(O)C(C)O3)C(O)C(C)O2)C(O)C(C)O1` (stereo not given) here?
**A.** Its T/C is 73 % of control.

**Q.** What about the T/C (endpoint: mean tumor weight, dose: 2.0 mg/kg/injection, schedule: Q07DX005 (ip), vehicle: saline) of the same molecule?
**A.** The T/C was 64 % of control.

**Q.** And the T/C (endpoint: median tumor weight (est.), dose: 0.5 mg/kg/injection, schedule: Q07DX005 (ip), vehicle: saline with Tween-80)?
**A.** The T/C was 58 % of control.

**Q.** What about the T/C (endpoint: median tumor weight (est.), dose: 1.0 mg/kg/injection, schedule: Q07DX005 (ip), vehicle: saline with Tween-80) of the same molecule?
**A.** The T/C was 78 % of control.

**Q.** What about the T/C (endpoint: median tumor weight (est.), dose: 2.0 mg/kg/injection, schedule: Q07DX005 (ip), vehicle: saline with Tween-80) of the same molecule?
**A.** The T/C was 89 % of control.

**Q.** For `O=C(NC/C(Cl)=C/Cl)Oc1cccc2ccccc12`, which T/C (endpoint: mean tumor weight, dose: 0.78 mg/kg/injection, schedule: Q07DX004 (ip), vehicle: saline) is on record?
**A.** The T/C was 78 % of control.

**Q.** What about the T/C (endpoint: mean tumor weight, dose: 1.56 mg/kg/injection, schedule: Q07DX004 (ip), vehicle: saline) of the same molecule?
**A.** The T/C was 91 % of control.

**Q.** What about the T/C (endpoint: mean tumor weight, dose: 3.12 mg/kg/injection, schedule: Q07DX004 (ip), vehicle: saline) of the same molecule?
**A.** The T/C was 112 % of control.

**Q.** And the T/C (endpoint: mean tumor weight, dose: 6.25 mg/kg/injection, schedule: Q07DX004 (ip), vehicle: saline)?
**A.** Its T/C is 72 % of control.

**Q.** What about the T/C (endpoint: mean tumor weight, dose: 12.5 mg/kg/injection, schedule: Q07DX004 (ip), vehicle: saline) of the same molecule?
**A.** The T/C was 58 % of control.

**Q.** For `ClC1C(Cl)C(Cl)C(Cl)C(Cl)C1Cl` (stereo not given), which T/C (endpoint: median tumor weight change, dose: 62.5 mg/kg/injection, schedule: Q01DX001 (ip), vehicle: Klucel (hydroxypropylcellulose) (HPC)) is on record?
**A.** Its T/C is 169 % of control.

**Q.** And the T/C [1]?
**A.** Its T/C is 105 % of control.

**Q.** What about the T/C [2] of the same molecule?
**A.** The T/C was 115 % of control.

**Q.** What about the T/C [3] of the same molecule?
**A.** Its T/C is 64 % of control.

**Q.** `COc1ccc2ccccc2c1C1NC(=O)c2ccccc2N1` (stereo not given) was tested. Which T/C [1] did it give?
**A.** Its T/C is 88 % of control.

**Q.** What about the T/C [2] of the same molecule?
**A.** Its T/C is 118 % of control.

**Q.** What about the T/C [3] of the same molecule?
**A.** The T/C was 97 % of control.

**Q.** What about the T/C (endpoint: median tumor weight change, dose: 1000.0 mg/kg/injection, schedule: Q01DX001 (ip), vehicle: Klucel (hydroxypropylcellulose) (HPC)) of the same molecule?
**A.** The T/C was 60 % of control.
